Values of other authors in patent US20030114497A1 (priority 2001, published 2003).

Key:
[1] = tested on: calcium channel; conditions: see WO 95/05822
[2] = tested on: smooth muscle cell migration; conditions: see WO 95/25722

SMILES: CCOC(=O)C1=C(COCCN)NC(C)=C(C(=O)OC)[C@H]1c1ccccc1Cl (single isomer, unassigned) [R(+) isomer]
- calcium channel blocking activity [1]: little or no calcium channel blocking activity
- inhibition of smooth muscle cell migration [2]: potent inhibitor
